The values that follow are results of earlier work, collected in patent publication US9446050B2, “Method for treatment of mesothelioma” (THE BRIGHAM AND WOMEN'S HOSPITAL, INC., priority 2011, dated 2016).

Data set [1] has as its system mesothelioma. To be noted: single agent.
Data set [2] deals with mesothelioma. To be noted: large-dose single treatment in combination with leucovin.

Regarding `Nc1nc2[nH]cc(CCc3ccc(C(=O)N[C@@H](CCC(=O)O)C(=O)O)cc3)c2c(=O)[nH]1` [pemetrexed], in data set [1], the median overall survival is listed as 10.7 months and the response rate was 14.1%. With `CN(Cc1cnc2nc(N)nc(N)c2n1)c1ccc(C(=O)N[C@@H](CCC(=O)O)C(=O)O)cc1` [methotrexate], in data set [2], the efficacy rate is reported as 37%.
